Tests used:
[1] = Microsomal stability assay, mouse liver microsomes; assay type: in vitro ADME; conditions: vs respective parent (8a, 8i, 8n or 8k)
[2] = Solubility assay; assay type: physicochemical; conditions: vs parent ligand 8a
[3] = target: T1, Muscarinic M4 (Homo sapiens, UniProt P08173); assay type: binding
T1 sequence (P08173 1-479): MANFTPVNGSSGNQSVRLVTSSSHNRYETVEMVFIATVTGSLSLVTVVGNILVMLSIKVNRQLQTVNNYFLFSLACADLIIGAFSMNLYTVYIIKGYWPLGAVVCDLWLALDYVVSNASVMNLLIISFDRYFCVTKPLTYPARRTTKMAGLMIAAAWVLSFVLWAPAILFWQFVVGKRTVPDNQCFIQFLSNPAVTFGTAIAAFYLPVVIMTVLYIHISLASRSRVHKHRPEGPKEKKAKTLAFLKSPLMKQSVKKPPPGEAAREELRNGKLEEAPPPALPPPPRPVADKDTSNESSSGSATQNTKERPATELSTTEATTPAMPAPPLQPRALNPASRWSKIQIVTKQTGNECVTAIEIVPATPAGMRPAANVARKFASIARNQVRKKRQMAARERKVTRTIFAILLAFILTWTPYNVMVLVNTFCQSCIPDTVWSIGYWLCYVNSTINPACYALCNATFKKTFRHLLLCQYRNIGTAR

[4] = target: GABAAR α6β3γ2 subtype (Rattus norvegicus, UniProt P18508+P30191+P63079); conditions: at 10 μM; cited from earlier work
Sequence of GABAAR α6β3γ2 subtype (P30191 20-453): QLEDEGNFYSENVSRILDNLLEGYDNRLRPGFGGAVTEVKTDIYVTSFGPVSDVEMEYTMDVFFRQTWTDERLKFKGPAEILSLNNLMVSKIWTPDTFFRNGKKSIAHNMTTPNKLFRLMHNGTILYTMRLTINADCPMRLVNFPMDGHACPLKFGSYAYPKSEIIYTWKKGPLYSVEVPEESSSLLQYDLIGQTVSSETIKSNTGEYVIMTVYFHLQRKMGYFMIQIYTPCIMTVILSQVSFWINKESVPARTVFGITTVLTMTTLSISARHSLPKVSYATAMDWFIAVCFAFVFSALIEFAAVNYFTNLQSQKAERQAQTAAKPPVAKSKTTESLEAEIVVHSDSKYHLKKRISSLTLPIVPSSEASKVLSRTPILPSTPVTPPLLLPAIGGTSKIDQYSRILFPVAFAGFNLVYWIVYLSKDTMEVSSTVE
Sequence of GABAAR α6β3γ2 subtype (P63079 26-473): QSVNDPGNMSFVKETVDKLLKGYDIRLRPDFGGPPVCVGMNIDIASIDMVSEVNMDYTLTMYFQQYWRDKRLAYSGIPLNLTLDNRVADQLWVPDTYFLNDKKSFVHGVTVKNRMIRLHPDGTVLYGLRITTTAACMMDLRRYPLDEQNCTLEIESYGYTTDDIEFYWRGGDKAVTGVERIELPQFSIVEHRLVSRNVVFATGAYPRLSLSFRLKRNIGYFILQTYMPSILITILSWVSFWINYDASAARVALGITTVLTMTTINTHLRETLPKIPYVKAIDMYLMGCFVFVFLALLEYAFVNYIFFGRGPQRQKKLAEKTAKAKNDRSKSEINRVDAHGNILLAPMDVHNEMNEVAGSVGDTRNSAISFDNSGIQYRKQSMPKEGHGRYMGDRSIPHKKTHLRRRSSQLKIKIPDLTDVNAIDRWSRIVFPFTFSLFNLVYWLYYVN
Sequence of GABAAR α6β3γ2 subtype (P18508 39-466): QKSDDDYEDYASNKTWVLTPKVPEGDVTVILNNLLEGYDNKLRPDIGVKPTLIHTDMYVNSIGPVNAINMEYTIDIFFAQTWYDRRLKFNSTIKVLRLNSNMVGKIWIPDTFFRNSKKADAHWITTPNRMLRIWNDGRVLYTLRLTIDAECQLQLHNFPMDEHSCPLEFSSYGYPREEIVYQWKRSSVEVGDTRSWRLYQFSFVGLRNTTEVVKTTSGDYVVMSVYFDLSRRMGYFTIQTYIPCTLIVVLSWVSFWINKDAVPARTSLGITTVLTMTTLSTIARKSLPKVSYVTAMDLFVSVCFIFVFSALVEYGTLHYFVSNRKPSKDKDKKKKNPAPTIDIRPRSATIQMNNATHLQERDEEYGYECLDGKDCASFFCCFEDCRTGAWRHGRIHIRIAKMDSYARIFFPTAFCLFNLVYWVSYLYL

SMILES	Increase in half-life (MLM) relative to parent ligand [1]	Increase in water solubility [2]	Activity at Muscarinic M4 [3]	α6β3γ2 efficacy relative to 8a and 8n [4]
COc1ccc2c3nn(-c4ccc(OC)nc4)c(=O)c-3c[nH]c2c1 [Compound 13a, 7-Methoxy-2-(6-methoxypyridin-3-yl)-2,5-dihydro-3H-pyrazolo[4,3-c]quinolin-3-one]	slightly decreased half-life	about 3 fold	showed activity	
COc1ccc(-n2nc3c4cc(Cl)ccc4[nH]cc-3c2=O)cc1 [Compound 8k, 8-Chloro-2-(4-methoxyphenyl)-2,5-dihydro-3H-pyrazolo[4,3-c]quinolin-3-one]				three times higher

From article PMC6941172 (Journal of medicinal chemistry, 2018)
